Experimental data published in patent US20100003217A1, “Compounds and Pharmaceutical Compositions for the Treatment of Viral Infections” (priority 2008, published 2010).
Several values for one entry are separate records, joined by “and”; a condition that tells them apart may be missing. Equal values may be shown once.

Legend:
[1] = Metabolite profile in rat urine; assay type: in vivo, male Sprague-Dawley rats; conditions: for % AD (percent of administered dose) / % HPLC (percent of HPLC peak area in the sample extract): group 1C (IV dose) pooled urine; for % of total urinary excretion / Total % AD: group 1C (IV dose) urine; for Total % AD: total of all collections
Description: Pooled urine samples were prepared for Groups 1C and 2C by mixing a fixed percent of the total volume for all four animals from the selected time points. For Group 1C, samples of the 1-, 2-, 6-, and 24-h collection intervals were pooled. For Group 2C, a pool of samples from all four animals was prepared for the 24 h collection intervals only. For 1-, 2-, and 6 h collection intervals, a urine sample of a single animal of Group 2A or 2B was used for analysis. All samples were brought to room temperature and vortexed briefly. The samples were diluted as necessary (2- to 20-fold) with appropriate aqueous mobile phase for the selected HPLC method. The pooled and diluted samples from the 24 h collection interval were centrifuged at 2040×g for 10 minutes. All other samples were analyzed without centrifugation. HPLC method 1 was used for HPLC profiling. Selected samples were analyzed by HPLC method 2 for comparison with the metabolite profile generated by microsomal and hepatocyte incubations (Examples 14 and 15) and with the metabolite profile of liver extracts.
Percent of the administered dose (% AD) for parent drug and each metabolite at each collection period=(% of the total radioactivity in the sample attributed to the metabolite)*(total radioactivity expressed as % of the administered dose, recovered during the corresponding collection period).
HPLC analyses of pooled urine samples of all time points were conducted for Group 1C. Metabolites R1, R2, R3, R4, R5, R6, R7 and R8 were characterized based on retention time.
For the PO dose group, a pooled urine sample from the 24-h collection time was analyzed. For 1-, 2-, and 6-h collection times, the majority of the samples had been used for radioanalysis. The remaining samples were insufficient for proportional pooling. Therefore, single animal samples of […] groups were used for HPLC profiling. Metabolites R^1, R^2, R^3, R^4, R^5, R^6, R^7 and R^8 were characterized based on retention time.
Table 50 contains data from single animal samples and pooled samples. To estimate overall distribution of urinary metabolites, it was assumed that the profile from a single animal is reflective of the overall average metabolite profile. Therefore, HPLC distribution data from single animals was used to calculate the percentage of administered dose excreted as various metabolites during the 1-, 2-, and 6-h collection intervals. Metabolites R1, R2, R3, R4, R5, R6, R7 and R8 were characterized based on retention time.

[2] = Rat plasma pharmacokinetics of total radioactivity after [^14C]-Compound 1; assay type: in vivo, male Sprague-Dawley rats; conditions: for Plasma total radioactivity concentration, Mean: group mean; for Plasma total radioactivity concentration: individual rats; for AUC0-24 of plasma total radioactivity: from average concentrations
Description: A preliminary rat metabolism study was conducted with radiolabeled Compound 1. The compound was labeled with [^14C] in the C-8 position of the guanine moiety. The objectives of the study were to determine, 1) the plasma pharmacokinetics of total radioactivity, 2) the time-course of total radioactivity and the amount of 2′-C-methyl guanosine-5′-TP in liver, 3) the major route of excretion, and 4) the metabolic profile in excreta, liver, and plasma.
Isotopically diluted [^14C]-Compound 1 was administered intravenously to male Sprague-Dawley rats at 50 mg/kg or by oral gavage at 100 mg/kg.
The plasma concentration-time data for total radioactivity was analyzed using Microsoft® Office Excel 2003 to obtain the area under the concentration-time curve (AUC). AUC0-24 (area under the concentration-time curve from 0 to 24 h after dosing) was calculated using the linear trapezoidal rule and nominal sampling times. For the IV dose group, concentration at time zero was extrapolated from the concentration data for the first two time points. The maximum (peak) plasma concentrations (Cmax) and the time to peak concentrations (tmax) were the observed values. Descriptive statistics were prepared in Excel.
Radioanalyses of plasma samples were conducted. The plasma concentration data for total radioactivity expressed as μg equivalents/mL are summarized below: […]

CC(C)(CO)C(=O)SCCOP(N)(=O)OC[C@H]1O[C@@H](n2cnc3c(=O)[nH]c(N)nc32)[C@](C)(O)[C@@H]1O (single isomer, unassigned; diastereomer 1) [Compd 3 Diastereomer 1]
% AD (percent of administered dose) ([1]; 1 h collection): 0.05 % AD
% HPLC (percent of HPLC peak area in the sample extract) ([1]; 1 h collection): 0.24%
% AD (percent of administered dose) ([1]; 2 h collection): 0.05 % AD
% HPLC (percent of HPLC peak area in the sample extract) ([1]; 2 h collection): 1.01%
% AD (percent of administered dose) ([1]; 6 h collection): 0.01 % AD
% HPLC (percent of HPLC peak area in the sample extract) ([1]; 6 h collection): 0.37%
% of total urinary excretion [1]: 0.25%
Total % AD [1]: 0.12 % AD

CC(C)(CO)C(=O)SCCOP(N)(=O)OC[C@H]1O[C@@H](n2cnc3c(=O)[nH]c(N)nc32)[C@](C)(O)[C@@H]1O (single isomer, unassigned; diastereomer 2) [Compd 3 Diastereomer 2]
% AD (percent of administered dose) ([1]; 1 h collection): 0.23 % AD
% HPLC (percent of HPLC peak area in the sample extract) ([1]; 1 h collection): 1.00%
% AD (percent of administered dose) ([1]; 2 h collection): 0.14 % AD
% HPLC (percent of HPLC peak area in the sample extract) ([1]; 2 h collection): 2.69%
% AD (percent of administered dose) ([1]; 6 h collection): 0.03 % AD
% HPLC (percent of HPLC peak area in the sample extract) ([1]; 6 h collection): 1.19%
% of total urinary excretion [1]: 0.84%
Total % AD [1]: 0.39 % AD

CC(C)(CO)C(=O)SCCOP(=O)(NCc1ccccc1)OC[C@H]1O[C@@H](n2cnc3c(=O)[nH]c(N)nc32)[C@](C)(O)[C@@H]1O (stereo partly shown) [[^14C] Compound 1]
Plasma total radioactivity concentration, Mean ([2]; IV 50 mg/kg, 0 h (pre-dose)): 0.000 μg Equivalents/mL
Plasma total radioactivity concentration, Mean ([2]; IV 50 mg/kg, 0.083 h): 43.692 μg Equivalents/mL
Plasma total radioactivity concentration, Mean ([2]; IV 50 mg/kg, 0.25 h): 9.195 μg Equivalents/mL
Plasma total radioactivity concentration, Mean ([2]; IV 50 mg/kg, 0.5 h): 4.311 μg Equivalents/mL
Plasma total radioactivity concentration, Mean ([2]; IV 50 mg/kg, 0.75 h): 1.835 μg Equivalents/mL
Plasma total radioactivity concentration, Mean ([2]; IV 50 mg/kg, 1 h): 1.399 μg Equivalents/mL
Plasma total radioactivity concentration, Mean ([2]; IV 50 mg/kg, 2 h): 2.175 μg Equivalents/mL
Plasma total radioactivity concentration, Mean ([2]; IV 50 mg/kg, 4 h): 0.799 μg Equivalents/mL
Plasma total radioactivity concentration, Mean ([2]; IV 50 mg/kg, 6 h): 2.652 μg Equivalents/mL
Plasma total radioactivity concentration, Mean ([2]; IV 50 mg/kg, 10 h): 0.605 μg Equivalents/mL
Plasma total radioactivity concentration, Mean ([2]; IV 50 mg/kg, 24 h): 0.570 μg Equivalents/mL
Plasma total radioactivity concentration ([2]; IV 50 mg/kg, Group 1A, 0.25 h, 50 mg/kg): 10.883 μg Equivalents/mL and 9.006 μg Equivalents/mL and 7.913 μg Equivalents/mL and 8.978 μg Equivalents/mL
Plasma total radioactivity concentration ([2]; IV 50 mg/kg, Group 1A, 1 h, 50 mg/kg): 1.371 μg Equivalents/mL and 1.358 μg Equivalents/mL and 1.600 μg Equivalents/mL and 1.267 μg Equivalents/mL
Plasma total radioactivity concentration ([2]; IV 50 mg/kg, Group 1A, 2 h, 50 mg/kg): 2.202 μg Equivalents/mL and 1.861 μg Equivalents/mL and 2.545 μg Equivalents/mL and 2.092 μg Equivalents/mL
Plasma total radioactivity concentration ([2]; IV 50 mg/kg, Group 1B, 0 h (pre-dose)): 0.000 μg Equivalents/mL
Plasma total radioactivity concentration ([2]; IV 50 mg/kg, Group 1B, 0.75 h, 50 mg/kg): 1.576 μg Equivalents/mL and 1.600 μg Equivalents/mL and 1.710 μg Equivalents/mL and 2.454 μg Equivalents/mL
Plasma total radioactivity concentration ([2]; IV 50 mg/kg, Group 1B, 4 h, 50 mg/kg): 0.755 μg Equivalents/mL and 0.713 μg Equivalents/mL and 0.938 μg Equivalents/mL and 0.790 μg Equivalents/mL
Plasma total radioactivity concentration ([2]; IV 50 mg/kg, Group 1B, 6 h, 50 mg/kg): 2.376 μg Equivalents/mL and 2.233 μg Equivalents/mL and 2.160 μg Equivalents/mL and 3.837 μg Equivalents/mL
Plasma total radioactivity concentration ([2]; IV 50 mg/kg, Group 1C, 0.083 h, 50 mg/kg): 50.653 μg Equivalents/mL and 45.178 μg Equivalents/mL and 35.246 μg Equivalents/mL and 37.600 μg Equivalents/mL
Plasma total radioactivity concentration ([2]; IV 50 mg/kg, Group 1C, 0.5 h, 50 mg/kg): 4.824 μg Equivalents/mL and 4.036 μg Equivalents/mL and 4.072 μg Equivalents/mL and 3.857 μg Equivalents/mL
Plasma total radioactivity concentration ([2]; IV 50 mg/kg, Group 1C, 10 h, 50 mg/kg): 0.566 μg Equivalents/mL and 0.675 μg Equivalents/mL and 0.573 μg Equivalents/mL and 0.562 μg Equivalents/mL
Plasma total radioactivity concentration ([2]; IV 50 mg/kg, Group 1C, 24 h, 50 mg/kg): 0.515 μg Equivalents/mL and 0.759 μg Equivalents/mL and 0.553 μg Equivalents/mL and 0.453 μg Equivalents/mL
AUC0-24 of plasma total radioactivity ([2]; IV 50 mg/kg): 36.000 μg equivalents · h/mL
Plasma total radioactivity concentration, Mean ([2]; PO 100 mg/kg, 0 h (pre-dose)): 0.000 μg Equivalents/mL
Plasma total radioactivity concentration, Mean ([2]; PO 100 mg/kg, 0.083 h): 0.283 μg Equivalents/mL
Plasma total radioactivity concentration, Mean ([2]; PO 100 mg/kg, 0.25 h): 0.346 μg Equivalents/mL
Plasma total radioactivity concentration, Mean ([2]; PO 100 mg/kg, 0.5 h): 0.316 μg Equivalents/mL
Plasma total radioactivity concentration, Mean ([2]; PO 100 mg/kg, 0.75 h): 0.315 μg Equivalents/mL
Plasma total radioactivity concentration, Mean ([2]; PO 100 mg/kg, 4 h): 0.625 μg Equivalents/mL
Plasma total radioactivity concentration, Mean ([2]; PO 100 mg/kg, 6 h): 1.331 μg Equivalents/mL
Plasma total radioactivity concentration, Mean ([2]; PO 100 mg/kg, 10 h): 0.622 μg Equivalents/mL
Plasma total radioactivity concentration, Mean ([2]; PO 100 mg/kg, 24 h): 0.399 μg Equivalents/mL
Plasma total radioactivity concentration ([2]; PO 100 mg/kg, Group 2A, 0.25 h, 100 mg/kg): 0.216 μg Equivalents/mL and 0.433 μg Equivalents/mL and 0.474 μg Equivalents/mL and 0.260 μg Equivalents/mL
Plasma total radioactivity concentration ([2]; PO 100 mg/kg, Group 2B, 0 h (pre-dose)): 0.000 μg Equivalents/mL
Plasma total radioactivity concentration ([2]; PO 100 mg/kg, Group 2B, 0.75 h, 100 mg/kg): 0.346 μg Equivalents/mL and 0.327 μg Equivalents/mL and 0.331 μg Equivalents/mL and 0.256 μg Equivalents/mL
Plasma total radioactivity concentration ([2]; PO 100 mg/kg, Group 2B, 4 h, 100 mg/kg): 0.578 μg Equivalents/mL and 0.618 μg Equivalents/mL and 0.675 μg Equivalents/mL and 0.630 μg Equivalents/mL
Plasma total radioactivity concentration ([2]; PO 100 mg/kg, Group 2B, 6 h, 100 mg/kg): 1.157 μg Equivalents/mL and 1.163 μg Equivalents/mL and 1.522 μg Equivalents/mL and 1.480 μg Equivalents/mL
Plasma total radioactivity concentration ([2]; PO 100 mg/kg, Group 2C, 0.083 h, 100 mg/kg): 0.228 μg Equivalents/mL (2×) and 0.394 μg Equivalents/mL and 0.596 μg Equivalents/mL
Plasma total radioactivity concentration ([2]; PO 100 mg/kg, Group 2C, 0.5 h, 100 mg/kg): 0.236 μg Equivalents/mL and 0.335 μg Equivalents/mL and 0.378 μg Equivalents/mL and 0.408 μg Equivalents/mL
Plasma total radioactivity concentration ([2]; PO 100 mg/kg, Group 2C, 10 h, 100 mg/kg): 0.806 μg Equivalents/mL and 0.555 μg Equivalents/mL and 0.506 μg Equivalents/mL and 0.511 μg Equivalents/mL
Plasma total radioactivity concentration ([2]; PO 100 mg/kg, Group 2C, 24 h, 100 mg/kg): 0.450 μg Equivalents/mL and 0.303 μg Equivalents/mL and 0.458 μg Equivalents/mL and 0.384 μg Equivalents/mL
AUC0-24 of plasma total radioactivity ([2]; PO 100 mg/kg): 15.445 μg equivalents · h/mL
